Source: US8829007B2 (priority 2009, dated 2014)
pEC50, pIC50: −log10 of the molar value. Where a name gives a salt, the structure may show the parent alone. Read-outs that look alike come from different tables or passages of the source.

What was measured:
[1] = test system: A/PR/8/34 influenza virus; assay: microbe, parasite or virus in culture; type: cell-based; settings: read-out: EC50 (mean all)
[2] = test system: influenza A virus (A/PR/8/34); assay: microbe, parasite or virus in culture; type: cell-based; settings: read-out: IC50 (mean all)
[3] = bDNA assay, A/PR/8/34 influenza virus replication in MDCK cells, class symbols
[4] = CPE assay, A/PR/8/34 infected MDCK cells, class symbols
[5] = Influenza A virus, PR/8, MDCK, bDNA assay, A/PR/8/34 influenza virus replication in MDCK cells, class symbols
[6] = Influenza A virus, PR/8, MDCK, CPE assay, A/PR/8/34 infected MDCK cells, class symbols

Row | Compound | pEC50 [1, 5] | pIC50 [2, 6] | also measured
1 | CC(=O)N1CCC(Nc2nc(-c3c[nH]c4ncc(Cl)cc34)ncc2F)C(C(=O)O)C1 (stereo not shown) [Compound 607] |  |  | pEC50 [1, 3]: < 5.48; pIC50 [2, 4]: < 5.00
2 | CCNC(=O)OC1CCCC(Nc2nc(-c3c[nH]c4ncc(Cl)cc34)ncc2F)C1 (stereo not shown) [Compound 608, 3-((2-(5-chloro-1H-pyrrolo[2,3-b]pyridin-3-yl)-5-fluoropyrimidin-4-ylamino)cyclohexyl ethylcarbamate] |  |  | pEC50 ([1]; Influenza A virus, PR/8, MDCK): > 5.30; pIC50 ([2]; Influenza A virus, PR/8, MDCK): > 5.30
3 | COCC(O)CN[C@@H]1CCC[C@H](Nc2nc(-c3c[nH]c4ncc(Cl)cc34)ncc2F)C1 (stereo partly drawn) [Compound 610, 1-[[(1R,3S)-3-[[2-(5-chloro-1H-pyrrolo[2,3-b]pyridin-3-yl)-5-fluoro-pyrimidin-4-yl]amino]cyclohexyl]amino]-3-methoxy-propan-2-ol] | < 5.48 | > 5.30 | 
4 | COCCC(=O)N[C@@H]1CCC[C@H](Nc2nc(-c3c[nH]c4ncc(Cl)cc34)ncc2F)C1 [Compound 611] | > 5.30 | > 5.30 | 
5 | NC(=O)CN1CCCC(Nc2nc(-c3c[nH]c4ncc(F)cc34)ncc2F)C1 (stereo not shown) [Compound 613] |  |  | pEC50 [1, 3]: > 5.30; pIC50 [2, 4]: > 5.30
6 | OC(CN1CCCC(Nc2nc(-c3c[nH]c4ncc(Cl)cc34)ncc2F)C1)C(F)(F)F (stereo not shown) [Compound 614] |  |  | pEC50 [1, 3]: > 5.30; pIC50 [2, 4]: > 5.30
7 | O[C@H]1[C@@H](Nc2nc(-c3c[nH]c4ncc(Cl)cc34)ncc2F)CCC[C@@H]1O [Compound 615] | > 5.30 | > 5.30 | 
8 | O[C@H]1[C@H](O)CCC[C@H]1Nc1nc(-c2c[nH]c3ncc(Cl)cc23)ncc1F [Compound 616] | < 5.48 | < 5.00 | 
9 | C#CC1(O)CCCC(Nc2nc(-c3c[nH]c4ncc(Cl)cc34)ncc2F)C1 (stereo not shown) [Compound 617] |  |  | pEC50 [1, 3]: > 5.30; pIC50 [2, 4]: > 5.30
10 | C#CC1(O)CCCC(Nc2nc(-c3c[nH]c4ncc(Cl)cc34)ncc2F)C1 (stereo not shown) [Compound 618] |  |  | pEC50 [1, 3]: > 5.30; pIC50 [2, 4]: > 5.30
11 | O=C1NCC(CN2CCCC(Nc3nc(-c4c[nH]c5ncc(Cl)cc45)ncc3F)C2)O1 (stereo not shown) [Compound 619] |  |  | pEC50 [1, 3]: > 5.30; pIC50 [2, 4]: > 5.30
12 | Cc1cnc(-c2c[nH]c3ncc(Cl)cc23)nc1N[C@H]1CCCN(CC(N)=O)C1 [Compound 620] | > 5.30 | 4.70 to 5.30 | 
13 | Fc1cnc(-c2c[nH]c3ncc(Cl)cc23)nc1NC1CCCN(CC2CCOCC2)C1 (stereo not shown) [Compound 621] |  |  | pEC50 [1, 3]: > 5.30; pIC50 [2, 4]: > 5.30
14 | Fc1cnc(-c2c[nH]c3ncc(Cl)cc23)nc1NC1CCCN(CC2CCOC2)C1 (stereo not shown) [Compound 622] |  |  | pEC50 [1, 3]: > 5.30; pIC50 [2, 4]: > 5.30
15 | O=C(C(O)CO)N1CCCC(Nc2nc(-c3c[nH]c4ncc(Cl)cc34)ncc2F)C1 (stereo not shown) [Compound 623] |  |  | pEC50 [1, 3]: > 5.30; pIC50 [2, 4]: > 5.30
16 | O[C@@H]1[C@@H](O)CCC[C@H]1Nc1nc(-c2c[nH]c3ncc(Cl)cc23)ncc1F [Compound 624] | 5.00 to 5.30 | > 5.30 | 
17 | O[C@H]1[C@H](O)CCC[C@@H]1Nc1nc(-c2c[nH]c3ncc(Cl)cc23)ncc1F [Compound 625] | > 5.30 | > 5.30 | 
18 | CCC1(O)CCCC(Nc2nc(-c3c[nH]c4ncc(Cl)cc34)ncc2F)C1 (stereo not shown) [Compound 626] | > 5.30 | > 5.30 | 
19 | C=CC1(O)CCCC(Nc2nc(-c3c[nH]c4ncc(Cl)cc34)ncc2F)C1 (stereo not shown) [Compound 627] |  |  | pEC50 [1, 3]: > 5.30; pIC50 [2, 4]: > 5.30

Row | Compound | pEC50 [1, 5] | pIC50 [2, 6] | also measured
20 | C=CC1(O)CCCC(Nc2nc(-c3c[nH]c4ncc(Cl)cc34)ncc2F)C1 (stereo not shown) [Compound 628] |  |  | pEC50 [1, 3]: > 5.30; pIC50 [2, 4]: > 5.30
21 | CC(C)(C)c1nc(-c2c[nH]c3ncc(Cl)cc23)nc(N[C@H]2CCCC[C@@H]2C(=O)O)c1F [Compound 629, (1S,2S)-2-(6-tert-butyl-2-(5-chloro-1H-pyrrolo[2,3-b]pyridin-3-yl)-5-fluoropyrimidin-4-ylamino)cyclohexanecarboxylic acid] | > 5.30 | > 5.30 | 
22 | O=C(O)[C@@H]1CCC[C@H](Nc2nc(-c3c[nH]c4ncc(Cl)cc34)ncc2F)C1 [Compound 630] | > 5.30 | > 5.30 | 
23 | O[C@H]1[C@@H](O)CCC[C@H]1Nc1nc(-c2c[nH]c3ncc(Cl)cc23)ncc1F [Compound 631] | > 5.30 | > 5.30 | 
24 | O[C@@H]1[C@H](O)CCC[C@@H]1Nc1nc(-c2c[nH]c3ncc(Cl)cc23)ncc1F [Compound 632] | > 5.30 | > 5.30 | 
25 | O=C(N[C@@H]1CCC[C@H](Nc2nc(-c3c[nH]c4ncc(Cl)cc34)ncc2F)C1)C1CCCOC1 (stereo partly drawn) [Compound 633, N-[(1R,3S)-3-[[2-(5-chloro-1H-pyrrolo[2,3-b]pyridin-3-yl)-5-fluoro-pyrimidin-4-yl]amino]cyclohexyl]tetrahydropyran-3-carboxamide hydrochloride] | > 5.30 | > 5.30 | 
26 | O=C(CCO)N[C@@H]1CCC[C@H](Nc2nc(-c3c[nH]c4ncc(Cl)cc34)ncc2F)C1 [Compound 634, N-[(1R,3S)-3-[[2-(5-chloro-1H-pyrrolo[2,3-b]pyridin-3-yl)-5-fluoro-pyrimidin-4-yl]amino]cyclohexyl]-3-hydroxy-propanamide hydrochloride] | > 5.30 | > 5.30 | 
27 | CC1(C(=O)N[C@@H]2CCC[C@H](Nc3nc(-c4c[nH]c5ncc(Cl)cc45)ncc3F)C2)COC1 [Compound 635, N-[(1R,3S)-3-[[2-(5-chloro-1H-pyrrolo[2,3-b]pyridin-3-yl)-5-fluoro-pyrimidin-4-yl]amino]cyclohexyl]-3-methyl-oxetane-3-carboxamide hydrochloride] | > 5.30 | > 5.30 | 
28 | O=C(N[C@@H]1CCC[C@H](Nc2nc(-c3c[nH]c4ncc(Cl)cc34)ncc2F)C1)C1CCOCC1 [Compound 636, N-[(1R,3S)-3-[[2-(5-chloro-1H-pyrrolo[2,3-b]pyridin-3-yl)-5-fluoro-pyrimidin-4-yl]amino]cyclohexyl]tetrahydropyran-4-carboxamide hydrochloride] | > 5.30 | > 5.30 | 
29 | O=C(N[C@@H]1CCC[C@H](Nc2nc(-c3c[nH]c4ncc(Cl)cc34)ncc2F)C1)C1CNCCO1 (stereo partly drawn) [Compound 637, N-[(1R,3S)-3-[[2-(5-chloro-1H-pyrrolo[2,3-b]pyridin-3-yl)-5-fluoro-pyrimidin-4-yl]amino]cyclohexyl]morpholine-2-carboxamide bishydrochloride] | > 5.30 | > 5.30 | 
30 | O=C(N[C@@H]1CCC[C@H](Nc2nc(-c3c[nH]c4ncc(Cl)cc34)ncc2F)C1)C1CCCO1 (stereo partly drawn) [Compound 638, N-[1R,3S)-3-[[2-(5-chloro-1H-pyrrolo[2,3-b]pyridin-3-yl)-5-fluoro-pyrimidin-4-yl]amino]cyclohexyl]tetrahydrofuran-2-carboxamide hydrochloride] | > 5.30 | > 5.30 | 
31 | O=C(N[C@@H]1CCC[C@H](Nc2nc(-c3c[nH]c4ncc(Cl)cc34)ncc2F)C1)C1CCNCC1 [Compound 639, N-[(1R,3S)-3-[[2-(5-chloro-1H-pyrrolo[2,3-b]pyridin-3-yl)-5-fluoro-pyrimidin-4-yl]amino]cyclohexyl]piperidine-4-carboxamide bishydrochloride] |  |  | pEC50 ([1]; Influenza A virus, PR/8, MDCK): < 5.48; pIC50 ([2]; Influenza A virus, PR/8, MDCK): < 5.00
32 | CC(O)CC(=O)N[C@@H]1CCC[C@H](Nc2nc(-c3c[nH]c4ncc(Cl)cc34)ncc2F)C1 (stereo partly drawn) [Compound 640, N-[(1R,3S)-3-[[2-(5-chloro-1H-pyrrolo[2,3-b]pyridin-3-yl)-5-fluoro-pyrimidin-4-yl]amino]cyclohexyl]-3-hydroxy-butanamide hydrochloride] | > 5.30 | > 5.30 | 
33 | CC(O)C(=O)N[C@@H]1CCC[C@H](Nc2nc(-c3c[nH]c4ncc(Cl)cc34)ncc2F)C1 (stereo partly drawn) [Compound 642, N-[(1R,3S)-3-[[2-(5-chloro-1H-pyrrolo[2,3-b]pyridin-3-yl)-5-fluoro-pyrimidin-4-yl]amino]cyclohexyl]-2-hydroxy-propanamide hydrochloride] | > 5.30 | > 5.30 | 
34 | OCC1(O)CCCC(Nc2nc(-c3c[nH]c4ncc(Cl)cc34)ncc2F)C1 (stereo not shown) [Compound 646] | > 5.30 | > 5.30 | 
35 | O=C(N[C@@H]1CCC[C@H](Nc2nc(-c3c[nH]c4ncc(Cl)cc34)ncc2F)C1)N1CCOCC1 [Compound 647] | > 5.30 | > 5.30 | 
36 | O=C(N[C@@H]1CCC[C@H](Nc2nc(-c3c[nH]c4ncc(Cl)cc34)ncc2F)C1)OCC1CCOC1 (stereo partly shown) [Compound 648] | > 5.30 | > 5.30 | 
37 | O=C(N[C@@H]1CCC[C@H](Nc2nc(-c3c[nH]c4ncc(Cl)cc34)ncc2F)C1)O[C@H]1CCOC1 [Compound 649] | > 5.30 | > 5.30 | 
38 | CC(C)(CO)C(=O)N[C@@H]1CCC[C@H](Nc2nc(-c3c[nH]c4ncc(Cl)cc34)ncc2F)C1 [Compound 650, N-[(1R,3S)-3-[[2-(5-chloro-1H-pyrrolo[2,3-b]pyridin-3-yl)-5-fluoro-pyrimidin-4-yl]amino]cyclohexyl]-3-hydroxy-2,2-dimethyl-propanamide hydrochloride] | > 5.30 | > 5.30 | 
